Format in all cases: biochemical
The target of one assay is T1, TYRO3 (Homo sapiens, UniProt Q06418).
T1 construct: purchased Eurofins Discovery (Kinase Profiler service)
T1 sequence (Q06418 41-890): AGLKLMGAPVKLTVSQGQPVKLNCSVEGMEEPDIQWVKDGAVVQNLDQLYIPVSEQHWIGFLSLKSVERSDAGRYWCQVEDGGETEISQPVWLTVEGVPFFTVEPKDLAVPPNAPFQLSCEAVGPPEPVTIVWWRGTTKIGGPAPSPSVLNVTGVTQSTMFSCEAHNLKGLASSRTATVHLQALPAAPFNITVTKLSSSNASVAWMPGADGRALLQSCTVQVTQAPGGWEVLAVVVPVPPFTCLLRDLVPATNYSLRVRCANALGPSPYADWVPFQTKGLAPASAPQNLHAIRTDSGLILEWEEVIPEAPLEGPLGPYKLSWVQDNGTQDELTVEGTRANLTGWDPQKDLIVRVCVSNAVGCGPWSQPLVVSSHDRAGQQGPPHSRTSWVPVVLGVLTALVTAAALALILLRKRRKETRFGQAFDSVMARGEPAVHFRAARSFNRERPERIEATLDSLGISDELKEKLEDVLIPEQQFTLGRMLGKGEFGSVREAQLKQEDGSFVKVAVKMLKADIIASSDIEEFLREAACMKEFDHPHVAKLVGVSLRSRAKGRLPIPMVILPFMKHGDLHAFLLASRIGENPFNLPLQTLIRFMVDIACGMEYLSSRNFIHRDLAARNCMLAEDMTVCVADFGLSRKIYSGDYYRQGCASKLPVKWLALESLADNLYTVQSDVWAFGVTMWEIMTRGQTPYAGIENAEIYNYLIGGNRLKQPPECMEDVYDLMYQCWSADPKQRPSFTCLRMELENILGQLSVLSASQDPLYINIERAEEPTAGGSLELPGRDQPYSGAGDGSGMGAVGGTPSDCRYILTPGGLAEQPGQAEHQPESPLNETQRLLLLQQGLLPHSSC
Put plainly: Filter-binding radiometric kinase activity assay (KinaseProfiler, Eurofins). As to conditions: 1 µM compound; read-out: % Residual enzymatic activity at 1 µM TYRO3.

The next assay addresses CDK2E (Homo sapiens, UniProt P24941). Kind of assay: ADP Glo Kinase assay. As to conditions: 1 µM compound; read-out: % Residual enzymatic activity at 1 µM CDK2E. The procedure:
(§1) Inhibition of CDKs and FLT3 were determined using ADP Glo Kinase assays, as previously described in International Patent Publication No WO 2017/020065.
(In ADP-Glo the light output rises with the ADP produced.)

For another assay, the target named is CDK4D1 (Homo sapiens, UniProt P11802). Kind of assay: ADP Glo Kinase assay. As to conditions: 1 µM compound; read-out: % Residual enzymatic activity at 1 µM CDK4D1. The procedure:
as §1

In another assay the test system is FLT3-ITD. Kind of assay: ADP Glo Kinase assay. The following applies: 1 µM compound. The procedure:
as §1

From patent publication US20230339889A1, “DERIVATIVES OF 2-OXO-N-(4-(PYRIMIDIN-4-YLOXY/THIO)PHENYL)-1,2-DIHYDROPYRIDINE-3-CARBOXAMIDE FOR USE AS PROTEIN KINASE INHIBITORS FOR THERAPY” (AUCENTRA THERAPEUTICS PTY LTD, priority 2020, published 2023) come the findings set out here.

Sequence of CDK4D1 (P11802 whole entry): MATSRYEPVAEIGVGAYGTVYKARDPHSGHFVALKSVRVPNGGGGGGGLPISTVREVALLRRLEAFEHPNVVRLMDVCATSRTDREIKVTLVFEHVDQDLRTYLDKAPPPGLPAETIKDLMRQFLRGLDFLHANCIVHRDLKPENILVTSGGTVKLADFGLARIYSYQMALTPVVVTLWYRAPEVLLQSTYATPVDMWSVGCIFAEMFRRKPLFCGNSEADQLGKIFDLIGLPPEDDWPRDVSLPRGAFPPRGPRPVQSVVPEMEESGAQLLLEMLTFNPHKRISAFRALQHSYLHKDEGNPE
Sequence of CDK4D1 (P24385 whole entry partner): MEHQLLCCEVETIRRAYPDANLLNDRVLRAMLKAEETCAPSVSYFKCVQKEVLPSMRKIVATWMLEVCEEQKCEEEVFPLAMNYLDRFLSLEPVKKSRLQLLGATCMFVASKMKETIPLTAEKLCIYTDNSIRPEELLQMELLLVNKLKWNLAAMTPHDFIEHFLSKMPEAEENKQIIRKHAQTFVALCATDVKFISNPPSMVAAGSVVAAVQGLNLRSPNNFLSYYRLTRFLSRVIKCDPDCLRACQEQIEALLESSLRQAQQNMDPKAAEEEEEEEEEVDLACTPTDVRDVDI

`Nc1ncnc(Oc2ccc(NC(=O)c3cccn(-c4ccc(F)cc4)c3=O)cc2)c1Cl` [Cmpd 4, N-(4-((6-amino-5-chloropyrimidin-4-yl)oxy)phenyl)-1-(4-fluorophenyl)-2-oxo-1,2-dihydropyridine-3-carboxamide]: the results for the remaining activity at 1 µM on TYRO3, on CDK2E and at CDK4D1 were 2%, 97% and 48%, respectively. In addition, the “% Residual enzymatic activity at 1 µM FLT3-ITD” value (“% Residual enzymatic activity” below) in the assay with FLT3-ITD is on record as 33%.

Regarding `Nc1ncnc(Oc2ccc(NC(=O)c3cccn(-c4ccc(F)cc4)c3=O)cc2)c1F` [Cmpd 6, N-(4-((6-amino-5-fluoropyrimidin-4-yl)oxy)phenyl)-1-(4-fluorophenyl)-2-oxo-1,2-dihydropyridine-3-carboxamide], the figures for the remaining activity at 1 µM on TYRO3, at CDK2E and on CDK4D1 were 6%, 89% and 69%, respectively. Further, the “% Residual enzymatic activity” value in the assay with FLT3-ITD was found to be 79%.

Take `Nc1ncnc(Oc2ccc(NC(=O)c3cccn(-c4ccc(F)cc4)c3=O)cc2F)c1F` [Cmpd 1, N-(4-((6-amino-5-fluoropyrimidin-4-yl)oxy)-3-fluorophenyl)-1-(4-fluorophenyl)-2-oxo-1,2-dihydropyridine-3-carboxamide]: the remaining activity at 1 µM on TYRO3 is -1%; at CDK2E, 99%; at CDK4D1, 40%. Also, the “% Residual enzymatic activity” value with FLT3-ITD is recorded as 50%.

Take `Nc1ncnc(Oc2ccc(NC(=O)c3cccn(-c4ccc(F)cc4)c3=O)cc2F)c1Cl` [Cmpd 3, N-(4-((6-amino-5-chloropyrimidin-4-yl)oxy)-3-fluorophenyl)-1-(4-fluorophenyl)-2-oxo-1,2-dihydropyridine-3-carboxamide]: the remaining activity at 1 µM is 0% at TYRO3, 96% on CDK2E and 69% at CDK4D1. In the assay on FLT3-ITD, the “% Residual enzymatic activity” value was 49%.

With `Nc1ncnc(Oc2ccc(NC(=O)c3cccn(-c4ccc(F)cc4)c3=O)c(F)c2)c1Cl` [Cmpd 5, N-(4-((6-amino-5-chloropyrimidin-4-yl)oxy)-2-fluorophenyl)-1-(4-fluorophenyl)-2-oxo-1,2-dihydropyridine-3-carboxamide], the remaining activity at 1 µM at TYRO3 was found to be 2%; on CDK2E it was 92%; on CDK4D1, 72%. The “% Residual enzymatic activity” value in the assay with FLT3-ITD is 43%.

Regarding `Nc1ncnc(Oc2ccc(NC(=O)c3cccn(-c4ccc(F)cc4)c3=O)c(F)c2)c1F` [Cmpd 7, N-(4-((6-amino-5-fluoropyrimidin-4-yl)oxy)-2-fluorophenyl)-1-(4-fluorophenyl)-2-oxo-1,2-dihydropyridine-3-carboxamide], the figures for the remaining activity at 1 µM at TYRO3, at CDK2E and on CDK4D1 were 5%, 80% and 72%, respectively. In the assay on FLT3-ITD, the “% Residual enzymatic activity” value is given as 40%.
